Test results from US6825202B2, “Arylsulfonyl derivatives with 5-HT6 receptor affinity” (Syntex (U.S.A.) LLC, priority 2001, dated 2004).
Structures can show the parent of a compound that is named as a salt.

| melting point | Structure (SMILES) |
| --- | --- |
| 279.9 to 283.3 °C | COc1ccc(S(=O)(=O)c2ccc3ccccc3c2)cc1N1CCNCC1 |
| 263.4 to 272.1 °C | COc1ccc(S(=O)(=O)c2ccc(Cl)cc2)cc1N1CCNCC1 |
| 265 to 266.3 °C | COc1ccc(S(=O)(=O)c2cccc(Cl)c2)cc1N1CCNCC1 |
| 245.9 to 246.2 °C | COc1ccc(S(=O)(=O)c2cc(Cl)cc(Cl)c2)cc1N1CCNCC1 |
| 246 to 250.1 °C | COc1ccc(S(=O)(=O)c2cccc(F)c2)cc1N1CCNCC1 |
| 235.5 to 236 °C | COc1ccc(S(=O)(=O)c2ccc(Cl)cc2)cc1C1CCNCC1 (as salt: hydrochloride) [compound 301, 4-[5-(4-chloro-benzenesulfonyl)2methoxy-phenyl] piperidine] |
| 155 to 159 °C | COc1ccc(S(=O)(=O)c2ccc(F)c3ccccc23)cc1N1CCNCC1 (as salt: hydrochloride) [compound 401, 1-[5-(4-fluoro-naphthalene-1-sulfonyl)2-methoxyphenyl]piperazine] |
